For test [1], the system named is Staphylococcus aureus. In words: Antibacterial activity against MsrA pump expressing Staphylococcus aureus after 24 hrs by geometric microdilution method. The format is functional. (Broth dilution looks for growth in wells or tubes with falling amounts of substance.)
Test [2] has as its system Staphylococcus aureus. Briefly: Antibacterial activity against aminoglycoside-6'-N-acetyltransferase/2''-O-phosphoryltransferase expressing Staphylococcus aureus after 24 hrs by geometric microdilution method. The test is classed as functional.
The subject of test [3] is Staphylococcus aureus. In words: Antibacterial activity against aminoglycoside-3'-O-phosphoryltransferase expressing Staphylococcus aureus after 24 hrs by geometric microdilution method. The test is classed as functional.
Test [4] concerns Staphylococcus aureus. Briefly: Antibacterial activity against aminoglycoside-4'-O-phosphoryltransferase expressing Staphylococcus aureus after 24 hrs by geometric microdilution method. The format is functional.
Test [5] concerns Staphylococcus aureus. In words: Antibacterial activity against methicillin-resistant Staphylococcus aureus ATCC 33592 clinical isolate after 24 hrs by geometric microdilution method. Particulars: ATCC 33592, 24 h. The test is classed as functional.
The test system of test [6] is Staphylococcus aureus. Briefly: Antibacterial activity against vancomycin-resistant Staphylococcus aureus VRS-2 after 24 hrs by geometric microdilution method. The test is classed as functional. Particulars: VRS-2, 24 h.
Test [7] concerns Acinetobacter lwoffii. Briefly: Antibacterial activity against […] expressing Acinetobacter lwoffii AI.88-483 after 24 hrs by geometric microdilution method. The format is functional.
The subject of test [8] is Pseudomonas aeruginosa. Briefly: Antibacterial activity against Pseudomonas aeruginosa ATCC 27853 after 24 hrs by geometric microdilution method. The test is classed as functional.
For test [9], the system named is Pseudomonas aeruginosa. Briefly: Antibacterial activity against AAC6'-2a expressing Pseudomonas aeruginosa F03 after 24 hrs by geometric microdilution method. The format is functional.
In test [10] the test system is Pseudomonas aeruginosa. In words: Antibacterial activity against MexXY expressing Pseudomonas aeruginosa PT629 after 24 hrs by geometric microdilution method. The test is classed as functional.
A further test concerns Klebsiella pneumoniae. Briefly: Antibacterial activity against Klebsiella pneumoniae ATCC 700603 after 24 hrs by geometric microdilution method. The format is functional.
For test [11], the system named is Escherichia coli. In words: Antibacterial activity against AAC6'-2b expressing Escherichia coli PAZ505H8101 after 24 hrs by geometric microdilution method. The test is classed as functional.
The subject of test [12] is Escherichia coli. In words: Antibacterial activity against ANT2'-2a expressing Escherichia coli L58058.1 after 24 hrs by geometric microdilution method. The format is functional.
Test [13] relates to Pseudomonas aeruginosa. Briefly: Antibacterial activity against Pseudomonas aeruginosa PAO1 after 24 hrs by geometric microdilution method. The format is functional.
The test system of test [14] is Pseudomonas aeruginosa. Briefly: Antibacterial activity against MexCD expressing Pseudomonas aeruginosa PA01 after 24 hrs by geometric microdilution method. The test is classed as functional.
Test [15] has as its system Pseudomonas aeruginosa. In words: Antibacterial activity against MexEF expressing Pseudomonas aeruginosa PA03 after 24 hrs by geometric microdilution method. The test is classed as functional.
Test [16] concerns Pseudomonas aeruginosa. In words: Antibacterial activity against MexAB expressing Pseudomonas aeruginosa PA21 after 24 hrs by geometric microdilution method. The format is functional.
Test [17] relates to Pseudomonas aeruginosa. Briefly: Antibacterial activity against MexXY expressing Pseudomonas aeruginosa PA22 after 24 hrs by geometric microdilution method. The format is functional.
The test system of test [18] is Pseudomonas aeruginosa. Briefly: Antibacterial activity against TriABC expressing MexAB, MexCD, MexEF, MexXY deleted Pseudomonas aeruginosa PA405 after 24 hrs by geometric microdilution method. The test is classed as functional.
The test system of test [19] is Pseudomonas aeruginosa. Briefly: Antibacterial activity against MexAB, MexCD, MexEF, MexXY, TriABC deleted Pseudomonas aeruginosa PA406 after 24 hrs by geometric microdilution method. The test is classed as functional.
Test [20] relates to Pseudomonas aeruginosa. Briefly: Inhibition of protein synthesis in Pseudomonas aeruginosa ATCC 27853 assessed as decrease in incorporation of L-[4,5-3H]leucine at MIC by liquid scintillation counter relative to control. The format is functional.
For test [21], the system named is Pseudomonas aeruginosa. Briefly: Inhibition of protein synthesis in Pseudomonas aeruginosa ATCC 27853 assessed as decrease in incorporation of L-[4,5-3H]leucine at 10 times MIC by liquid scintillation counter relative to control. The format is functional.
The next test has as its target Nucleic Acid. Briefly: Binding affinity to bacterial rRNA A site at 200 uM by isothermal titration calorimetry. The format is nucleic-acid assay. (In general: Isothermal titration calorimetry measures the heat released or taken up as one component is titrated into another.)
For test [22], the system named is Staphylococcus aureus. In words: Antibacterial activity against Staphylococcus aureus ATCC 25923 after 24 hrs by geometric microdilution method. The format is functional. Particulars: ATCC 25923, 24 h.
The subject of test [23] is Staphylococcus aureus. In words: Antibacterial activity against NorA pump expressing Staphylococcus aureus after 24 hrs by geometric microdilution method. The test is classed as functional.
The test system of test [24] is Acinetobacter lwoffii. Briefly: microbe, parasite or virus in culture. The note with it: ATCC 17925, 24 h.
Description: Antibacterial activity against Acinetobacter lwoffii ATCC 17925 after 24 hrs by geometric microdilution method
Test [25] deals with Escherichia coli. Briefly: microbe, parasite or virus in culture. The note with it: ATCC 25922, 24 h.
Description: Antibacterial activity against Escherichia coli ATCC 25922 after 24 hrs by geometric microdilution method
For a further test, the system named is Citrobacter amalonaticus. Briefly: Antibacterial activity against R-methylase expressing Citrobacter amalonaticus 06AB0010 after 24 hrs by geometric microdilution method. The test is classed as functional.
The subject of test [26] is Escherichia coli. In words: Antibacterial activity against R-methylase expressing Escherichia coli 06AB003 after 24 hrs by geometric microdilution method. The format is functional.
In a further test the test system is Klebsiella aerogenes. In words: Antibacterial activity against R-methylase expressing Enterobacter aerogenes 06AB008 after 24 hrs by geometric microdilution method. The test is classed as functional.
Test [27] has as its system Pseudomonas aeruginosa. In words: Inhibition of protein synthesis in Pseudomonas aeruginosa ATCC 27853 assessed as decrease in incorporation of L-[4,5-3H]leucine at 5 times MIC by liquid scintillation counter relative to control. The test is classed as functional.

Broadly, the Kd is the concentration at which binding is half-saturated. Low readings indicate tighter binding, high ones weaker binding.

Converted amounts (≈) assume the structure as drawn.

As to `NC[C@@H]1O[C@H](O[C@H]2[C@@H](O)[C@H](O[C@@H]3[C@@H](O)[C@H](N)C[C@H](N)[C@H]3O[C@H]3O[C@H](CN)[C@@H](O)[C@H](O)[C@H]3N)O[C@@H]2CO)[C@H](N)[C@@H](O)[C@@H]1O` [FRAMYCETIN], the MIC with Staphylococcus aureus [1] was 2 µg/mL (≈ 3.25 µM); against Staphylococcus aureus [2] it was 1 µg/mL (≈ 1.63 µM); against Staphylococcus aureus [3], above 128 µg/mL; against Staphylococcus aureus [4], 32 µg/mL (≈ 52.1 µM); against Staphylococcus aureus [5], above 128 µg/mL; in the test on Staphylococcus aureus [6], 128 µg/mL (≈ 208 µM). The MIC in the test on Acinetobacter lwoffii [7] (AI.88-483, 24 h) was above 128 µg/mL; in the test on Pseudomonas aeruginosa [8] (ATCC 27853, 24 h), 64 µg/mL (≈ 104 µM); in the test with Pseudomonas aeruginosa [9] (F03, 24 h), 128 µg/mL (≈ 208 µM); against Pseudomonas aeruginosa [10] (PT629, 24 h) it was 32 µg/mL (≈ 52.1 µM); in the test with Klebsiella pneumoniae (ATCC 700603, 24 h) it was 16 µg/mL (≈ 26 µM); in the test on Escherichia coli [11] (PAZ505H8101, 24 h), 4 µg/mL (≈ 6.51 µM). Besides, the MIC against Escherichia coli [12] (L58058.1, 24 h) stood at 32 µg/mL (≈ 52.1 µM); in the test with Pseudomonas aeruginosa [13] (PAO1, 24 h), 4 µg/mL (≈ 6.51 µM); against Pseudomonas aeruginosa [14] (PA01, 24 h) it was 8 µg/mL (≈ 13 µM); against Pseudomonas aeruginosa [15] (PA03, 24 h), 4 µg/mL (≈ 6.51 µM); in the test with Pseudomonas aeruginosa [16] (PA21, 24 h) it was 4 µg/mL (≈ 6.51 µM); against Pseudomonas aeruginosa [17] (PA22, 24 h) it was 32 µg/mL (≈ 52.1 µM). Further, the MIC amounted to 2 µg/mL (≈ 3.25 µM) in the test with Pseudomonas aeruginosa [18] (PA405, 24 h); 4 µg/mL (≈ 6.51 µM) with Pseudomonas aeruginosa [19] (PA406, 24 h); 2 µg/mL (≈ 3.25 µM) with Staphylococcus aureus [22]; 1 µg/mL (≈ 1.63 µM) against Staphylococcus aureus [23]; 0.5 µg/mL (≈ 0.813 µM) in the test on Acinetobacter lwoffii [24]; 2 µg/mL (≈ 3.25 µM) against Escherichia coli [25]. Also, the “inhibition (INH)” value in the test on Pseudomonas aeruginosa [20] and with Pseudomonas aeruginosa [21] was 40% each time. Besides, binding at Nucleic Acid was characterised by a dissociation constant (Kd) of 1.55 µM.
For GENTAMICIN, the MIC was 4 µg/mL against Acinetobacter lwoffii [7]; 1 µg/mL in the test with Pseudomonas aeruginosa [8]; above 28 µg/mL with Pseudomonas aeruginosa [9]; 4 µg/mL against Pseudomonas aeruginosa [10]; 8 µg/mL in the test on Klebsiella pneumoniae; 1 µg/mL against Escherichia coli [11]. Moreover, the MIC worked out at 64 µg/mL against Escherichia coli [12]; 2 µg/mL in the test on Pseudomonas aeruginosa [13]; 1 µg/mL against Pseudomonas aeruginosa [14]; 1 µg/mL in the test on Pseudomonas aeruginosa [15]; 1 µg/mL against Pseudomonas aeruginosa [16]; 4 µg/mL in the test with Pseudomonas aeruginosa [17]. The MIC with Pseudomonas aeruginosa [18] was below 0.125 µg/mL; in the test with Pseudomonas aeruginosa [19], below 0.125 µg/mL; against Citrobacter amalonaticus, above 128 µg/mL; in the test with Escherichia coli [26], above 128 µg/mL; against Klebsiella aerogenes, above 128 µg/mL.
For `NC[C@H]1O[C@H](O[C@H]2[C@H](O)[C@@H](OCc3ccc4ccccc4n3)[C@H](N)C[C@@H]2N)[C@H](N)[C@@H](OCc2ccc3ccccc3n2)[C@@H]1OCc1ccc2ccccc2n1`, the MIC was above 128 µg/mL in the test with Staphylococcus aureus [1]; 128 µg/mL (≈ 172 µM) in the test on Staphylococcus aureus [2]; 64 µg/mL (≈ 85.8 µM) against Staphylococcus aureus [3]; above 128 µg/mL against Staphylococcus aureus [4]; 64 µg/mL (≈ 85.8 µM) against Staphylococcus aureus [5]; 64 µg/mL (≈ 85.8 µM) against Staphylococcus aureus [6]. For the same compound, the MIC against Acinetobacter lwoffii [7] (AI.88-483, 24 h) was above 128 µg/mL; in the test on Pseudomonas aeruginosa [8] (ATCC 27853, 24 h), above 128 µg/mL; in the test on Pseudomonas aeruginosa [9] (F03, 24 h) it was above 128 µg/mL; in the test on Pseudomonas aeruginosa [10] (PT629, 24 h), above 128 µg/mL; in the test with Klebsiella pneumoniae (ATCC 700603, 24 h), above 128 µg/mL; with Escherichia coli [11] (PAZ505H8101, 24 h) it was above 128 µg/mL. For the same compound, the MIC is above 128 µg/mL in the test on Escherichia coli [12] (L58058.1, 24 h); above 128 µg/mL in the test with Pseudomonas aeruginosa [13] (PAO1, 24 h); above 128 µg/mL in the test with Pseudomonas aeruginosa [14] (PA01, 24 h); above 128 µg/mL with Pseudomonas aeruginosa [15] (PA03, 24 h); above 128 µg/mL against Pseudomonas aeruginosa [16] (PA21, 24 h); above 128 µg/mL against Pseudomonas aeruginosa [17] (PA22, 24 h). Also, the MIC in the test with Pseudomonas aeruginosa [18] (PA405, 24 h) is 64 µg/mL (≈ 85.8 µM); with Pseudomonas aeruginosa [19] (PA406, 24 h) it was 64 µg/mL (≈ 85.8 µM); in the test on Staphylococcus aureus [22] it was 128 µg/mL (≈ 172 µM); in the test on Staphylococcus aureus [23], above 128 µg/mL; against Acinetobacter lwoffii [24], 128 µg/mL (≈ 172 µM); with Escherichia coli [25] it was above 128 µg/mL.
`C[C@H]1[C@H](NC(=O)/C(=N\OC(C)(C)C(=O)O)c2csc(N)n2)C(=O)N1S(=O)(=O)O` [AZTREONAM]: the “inhibition (INH)” value with Pseudomonas aeruginosa [21] was determined as 95%; in the test with Pseudomonas aeruginosa [27], 30%.

For the origin of these results see ChEMBL document CHEMBL1156794, “Synthesis and antimicrobial evaluation of amphiphilic neamine derivatives” (J Med Chem, 2010).
